Assay: mn = molality of the nth substance listed, in mol/kg
Conditions: 101 kPa, Liquid; for speed of sound: Pulse-echo method

O=C([O-])CC(O)(CC(=O)O)C(=O)O.[Na+] [sodium dihydrogen citrate] + O
Conditions | mass density, 298.15 K [kg/m3] | mass density, 303.15 K [kg/m3] | mass density, 308.15 K [kg/m3] | speed of sound, 303.15 K [m/s] | speed of sound, 308.15 K [m/s]
m1 = 0.0093 | 998.086 | 996.675 | 995.048 | 1510.2 | 1520.8
m1 = 0.0117 | 998.341 | 996.93 | 995.3 | 1510.4 | 1521
m1 = 0.0125 | 998.436 | 997.022 | 995.39 | 1510.5 | 1521.1
m1 = 0.0138 | 998.576 | 997.161 | 995.527 | 1510.6 | 1521.2
m1 = 0.0155 | 998.772 | 997.353 | 995.72 | 1510.8 | 1521.4
m1 = 0.0163 | 998.856 | 997.436 | 995.802 | 1510.8 | 1521.4
m1 = 0.0187 | 999.125 | 997.702 | 996.063 | 1511 | 1521.6
m1 = 0.0202 | 999.296 | 997.872 | 996.232 | 1511.2 | 1521.8
m1 = 0.0209 | 999.364 | 997.94 | 996.299 | 1511.3 | 1521.8
m1 = 0.024 | 999.72 | 998.29 | 996.648 | 1511.5 | 1522.1
m1 = 0.0279 | 1000.15 | 998.715 | 997.067 | 1511.9 | 1522.4
m1 = 0.0327 | 1000.68 | 999.246 | 997.594 | 1512.3 | 1522.8
m1 = 0.0376 | 1001.22 | 999.776 | 998.119 | 1512.7 | 1523.2
m1 = 0.0409 | 1001.6 | 1000.15 | 998.486 | 1513.1 | 1523.5
m1 = 0.047 | 1002.27 | 1000.81 | 999.141 | 1513.6 | 1524
m1 = 0.0681 | 1004.59 | 1003.11 | 1001.41 | 1515.5 | 1525.8
m1 = 0.0937 | 1007.38 | 1005.86 | 1004.15 | 1517.8 | 1527.9
m1 = 0.1194 | 1010.14 | 1008.6 | 1006.86 | 1520 | 1530.1
m1 = 0.144 | 1012.77 | 1011.2 | 1009.44 | 1522.1 | 1532
m1 = 0.1678 | 1015.29 | 1013.7 | 1011.91 | 1524.2 | 1534
m1 = 0.1911 | 1017.76 | 1016.13 | 1014.32 | 1526.2 | 1535.8
m1 = 0.2165 | 1020.42 | 1018.77 | 1016.93 | 1528.2 | 1537.8
m1 = 0.2412 | 1022.98 | 1021.31 | 1019.45 | 1530.3 | 1539.8
m1 = 0.2934 | 1028.36 | 1026.63 | 1024.72 | 1534.7 | 1543.9
m1 = 0.3205 | 1031.13 | 1029.38 | 1027.44 | 1537 | 1546
m1 = 0.3395 | 1033.06 | 1031.28 | 1029.33 | 1538.5 | 1547.5
m1 = 0.3728 | 1036.41 | 1034.6 | 1032.62 | 1541.2 | 1550
m1 = 0.3936 | 1038.5 | 1036.67 | 1034.67 | 1542.9 | 1551.6

Source: the NIST ThermoML archive (doi:10.1021/je100864e)
